Laboratory results published in PubChem BioAssay AID228 (DTP/NCI, 2004).
Where “and” joins values, the source holds several entries; their conditions need not be identical. Equal entries are not always repeated. Inconclusive results are not listed.

Tested on: BDF1 mice, Friend leukemia sc, tumor weight T/C
Assay: NCI In Vivo Anticancer Drug Screen. Data for tumor model Friend Virus Leukemia (Solid) (subcutaneous) in B6D2F1 (BDF1) mice
Settings: endpoint: mean tumor weight, higher = larger tumour
Method: The antitumor activity of compounds was measured in mice bearing transplantable tumors. Survival or tumor size were measured and the results are expressed as the measurement made in the treated group (T) divided by the measurement made in the vehicle treated control group (C). The tumor model used in this assay is Friend Virus Leukemia (Solid) (subcutaneous) in B6D2F1 (BDF1) mice

[1] = dose: 5.0 mg/kg/injection, schedule: Q01DX011 (ip), vehicle: carboxymethylcellulose (CMC)
[2] = dose: 7.5 mg/kg/injection, schedule: Q01DX011 (ip), vehicle: carboxymethylcellulose (CMC)

How did the T/C (dose: 0.75 mg/kg/injection, schedule: Q01DX011 (ip), vehicle: carboxymethylcellulose (CMC)) turn out when `O=C(Nc1ccc(C2=NCCCN2)cc1)c1ccc(C(=O)Nc2ccc(C3=NCCCN3)cc2)cc1` was run?
The T/C was 121 % of control.

What about the T/C (dose: 1.5 mg/kg/injection, schedule: Q01DX011 (ip), vehicle: carboxymethylcellulose (CMC)) of the same compound?
Its T/C is 102 % of control.

What about the T/C (dose: 3.0 mg/kg/injection, schedule: Q01DX011 (ip), vehicle: carboxymethylcellulose (CMC)) of the same compound?
Its T/C is 44 % of control.

What about the T/C (dose: 3.75 mg/kg/injection, schedule: Q01DX011 (ip), vehicle: carboxymethylcellulose (CMC)) of the same compound?
The T/C was 75 % of control.

And the T/C [1]?
The T/C was 42 % of control.

What about the T/C (dose: 6.0 mg/kg/injection, schedule: Q01DX011 (ip), vehicle: carboxymethylcellulose (CMC)) of the same compound?
The T/C was 64 % of control.

What about the T/C [2] of the same compound?
Its T/C is 10 % of control.

Which results are given for `Nc1nc2ncc(CNc3ccc(C(=O)NC(CCC(=O)O)C(=O)O)cc3)nc2c(=O)[nH]1` (stereo unspecified)?
T/C (dose: 7.0 mg/kg/injection, schedule: Q01DX011 (ip), vehicle: carboxymethylcellulose (CMC)): 56 % of control; T/C (dose: 14.0 mg/kg/injection, schedule: Q01DX011 (ip), vehicle: carboxymethylcellulose (CMC)): 105 % of control; T/C (dose: 28.0 mg/kg/injection, schedule: Q01DX011 (ip), vehicle: carboxymethylcellulose (CMC)): 79 % of control; T/C (dose: 56.0 mg/kg/injection, schedule: Q01DX011 (ip), vehicle: carboxymethylcellulose (CMC)): 70 % of control

How did the T/C (dose: 11.0 mg/kg/injection, schedule: Q01DX011 (ip), vehicle: carboxymethylcellulose (CMC)) turn out when `Nc1nc(N)c2[nH]cnc2n1` was run?
The T/C was 109 % of control.

What about the T/C (dose: 22.0 mg/kg/injection, schedule: Q01DX011 (ip), vehicle: carboxymethylcellulose (CMC)) of the same compound?
Its T/C is 92 % of control.

And the T/C (dose: 44.0 mg/kg/injection, schedule: Q01DX011 (ip), vehicle: carboxymethylcellulose (CMC))?
The T/C was 87 % of control.

What about the T/C (dose: 88.0 mg/kg/injection, schedule: Q01DX011 (ip), vehicle: carboxymethylcellulose (CMC)) of the same compound?
The T/C was 66 % of control and 85 % of control.

How did the T/C (dose: 4.5 mg/kg/injection, schedule: Q01DX011 (ip), vehicle: carboxymethylcellulose (CMC)) turn out when `C1OC1C1CO1` (stereo unspecified) was run?
Its T/C is 77 % of control.

What about the T/C (dose: 9.0 mg/kg/injection, schedule: Q01DX011 (ip), vehicle: carboxymethylcellulose (CMC)) of the same compound?
Its T/C is 107 % of control and 115 % of control.

What about the T/C (dose: 18.0 mg/kg/injection, schedule: Q01DX011 (ip), vehicle: carboxymethylcellulose (CMC)) of the same compound?
Its T/C is 70 % of control and 83 % of control.

`CCOc1ccc(Nc2ncnc3nc[nH]c23)cc1CN(CCCl)CCCl` was tested. Which T/C (dose: 1.0 mg/kg/injection, schedule: Q01DX011 (ip), vehicle: saline) did it give?
The T/C was 101 % of control.

What about the T/C (dose: 4.0 mg/kg/injection, schedule: Q01DX011 (ip), vehicle: saline) of the same compound?
The T/C was 70 % of control.

Which results are given for `CCC(=O)O[C@H]1CC[C@H]2[C@@H]3CCC4=CC(=O)CC[C@]4(C)[C@H]3CC[C@]12C`?
T/C (dose: 1.0 mg/kg/injection, schedule: Q01DX011 (sc), vehicle: steriod suspending solution): 84 % of control; T/C (dose: 5.0 mg/kg/injection, schedule: Q01DX011 (sc), vehicle: steriod suspending solution): 104 % of control; T/C (dose: 10.0 mg/kg/injection, schedule: Q01DX011 (sc), vehicle: steriod suspending solution): 96 % of control; T/C (dose: 20.0 mg/kg/injection, schedule: Q01DX011 (sc), vehicle: steriod suspending solution): 81 % of control; T/C (dose: 40.0 mg/kg/injection, schedule: Q01DX011 (sc), vehicle: steriod suspending solution): 89 % of control; T/C (dose: 80.0 mg/kg/injection, schedule: Q01DX011 (sc), vehicle: steriod suspending solution): 76 % of control; T/C (dose: 125.0 mg/kg/injection, schedule: Q01DX011 (sc), vehicle: steriod suspending solution): 199 % of control; T/C (dose: 200.0 mg/kg/injection, schedule: Q01DX011 (sc), vehicle: steriod suspending solution): 158 % of control; T/C (dose: 250.0 mg/kg/injection, schedule: Q01DX011 (sc), vehicle: steriod suspending solution): 207 % of control; T/C (dose: 300.0 mg/kg/injection, schedule: Q01DX011 (sc), vehicle: steriod suspending solution): 94 % of control; T/C (dose: 400.0 mg/kg/injection, schedule: Q01DX011 (sc), vehicle: steriod suspending solution): 185 % of control and 201 % of control; T/C (dose: 500.0 mg/kg/injection, schedule: Q01DX011 (sc), vehicle: steriod suspending solution): 171 % of control and 191 % of control and 257 % of control

For `Clc1ccc(N2CCN(CCCN3CCN(c4cccc(Cl)c4)CC3)CC2)cc1`, which T/C [2] is on record?
Its T/C is 93 % of control.

And the T/C (dose: 15.0 mg/kg/injection, schedule: Q01DX011 (ip), vehicle: carboxymethylcellulose (CMC))?
Its T/C is 85 % of control.

And the T/C (dose: 30.0 mg/kg/injection, schedule: Q01DX011 (ip), vehicle: carboxymethylcellulose (CMC))?
The T/C was 62 % of control.

For `CN(C)Nc1ncnc2nc[nH]c12`, which T/C [1] is on record?
Its T/C is 74 % of control.

And the T/C (dose: 10.0 mg/kg/injection, schedule: Q01DX011 (ip), vehicle: carboxymethylcellulose (CMC))?
Its T/C is 80 % of control.

And the T/C (dose: 20.0 mg/kg/injection, schedule: Q01DX011 (ip), vehicle: carboxymethylcellulose (CMC))?
The T/C was 59 % of control and 65 % of control.

What about the T/C (dose: 40.0 mg/kg/injection, schedule: Q01DX011 (ip), vehicle: carboxymethylcellulose (CMC)) of the same compound?
Its T/C is 17 % of control and 35 % of control.

Which results are given for `Oc1cc(CN(CCCl)CCCl)c(O)cc1CN(CCCl)CCCl`?
T/C (dose: 0.44 mg/kg/injection, schedule: Q01DX011 (ip), vehicle: carboxymethylcellulose (CMC)): 63 % of control; T/C (dose: 0.88 mg/kg/injection, schedule: Q01DX011 (ip), vehicle: carboxymethylcellulose (CMC)): 86 % of control
